According to ChEMBL document CHEMBL1201862, “PubChem BioAssay data set” (2004):
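Where inhibition never reached the appropriate level, the endpoint shown equals the highest concentration tested. Otherwise, values were interpolated linearly from a five-concentration, 48-hour dose response in 96-well plates. Here, GI50 denotes the concentration required for 50% inhibition of growth.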 Activity calls are given as the source filed them. No stated cut-off is given here; in the data, active = GI50 up to about 1.1 µM and inactive = higher.

Assays:
Assay in all cases: DTP human tumour cell line panel, 48 h
[1] = test system: HCC 2998
[2] = test system: OVCAR-4
[3] = test system: DU-145
[4] = test system: CCRF-CEM
[5] = test system: HT-29
[6] = test system: UO-31
[7] = test system: SF-539
[8] = test system: UACC-257
[9] = test system: NCI-H23
[10] = test system: CAKI-1
[11] = test system: NCI-H460
[12] = test system: NCI-H226
[13] = test system: 786-0
[14] = test system: HCT-116
[15] = test system: SNB-75
[16] = test system: A549
[17] = test system: MCF7
[18] = test system: MOLT-4
[19] = test system: SK-OV-3
[20] = test system: MDA-MB-435

Structure (SMILES)	GI50 [1]	GI50 [2]	GI50 [3]	GI50 [4]	GI50 [5]	GI50 [6]	GI50 [7]	GI50 [8]	GI50 [9]	GI50 [10]	GI50 [11]	GI50 [12]	GI50 [13]	GI50 [14]	GI50 [15]	GI50 [16]	GI50 [17]	GI50 [18]	GI50 [19]	GI50 [20]
CC(=O)Nc1ccc(-c2nc3ccccc3s2)cc1I	0.488 µM (active)	8.79 µM (inactive)	11 µM (inactive)	> 100 µM (inactive)	> 65.6 µM (inactive)	15.1 µM (inactive)	14.3 µM (inactive)	> 100 µM (inactive)	18 µM (inactive)	20 µM (inactive)	49.4 µM (inactive)	7.96 µM (inactive)	18.5 µM (inactive)	1.16 µM (inactive)	24.2 µM (inactive)	45 µM (inactive)	0.0463 µM (active)	> 100 µM (inactive)	18.3 µM (inactive)	> 94.8 µM (inactive)
c1ccc2c(c1)Oc1cccc3cccc-2c13	> 100 µM (inactive)	> 100 µM (inactive)	> 100 µM (inactive)	> 100 µM (inactive)	> 100 µM (inactive)	> 100 µM (inactive)	> 100 µM (inactive)	> 100 µM (inactive)	> 100 µM (inactive)	> 100 µM (inactive)	> 100 µM (inactive)	> 100 µM (inactive)	> 100 µM (inactive)	> 100 µM (inactive)	> 100 µM (inactive)	> 100 µM (inactive)	> 100 µM (inactive)	98.2 µM (inactive)	> 100 µM (inactive)	> 100 µM (inactive)
CCOC(=O)CCc1ccc(NC(=O)/C=C/c2ccc([N+](=O)[O-])o2)cc1	2.69 µM (inactive)	3.94 µM (inactive)	2.1 µM (inactive)	0.177 µM (active)	0.925 µM (active)	1.61 µM (inactive)	1.72 µM (inactive)	0.798 µM (active)	0.863 µM (active)	2.47 µM (inactive)	2.34 µM (inactive)	4.34 µM (inactive)	0.229 µM (active)	0.685 µM (active)	2.16 µM (inactive)	3.72 µM (inactive)	0.426 µM (active)	0.22 µM (active)	9.12 µM (inactive)	0.316 µM (active)
COc1ccc(N2C(=O)C3c4[nH]c5ccc(OCc6ccccc6)cc5c4C4CCC(C(C)C)CC4C3C2=O)cc1 (stereo not given)	> 100 µM (inactive)	19.4 µM (inactive)	> 100 µM (inactive)	12.6 µM (inactive)	> 100 µM (inactive)	> 57.1 µM (inactive)	6.03 µM (inactive)	> 100 µM (inactive)	17.4 µM (inactive)	> 30.7 µM (inactive)	13.9 µM (inactive)	14.2 µM (inactive)	8.11 µM (inactive)	> 45.8 µM (inactive)	2.23 µM (inactive)	50.6 µM (inactive)	99.1 µM (inactive)	18.2 µM (inactive)	17.7 µM (inactive)	> 100 µM (inactive)
CCN(CCCN(CC)C(=O)Nc1ccccc1)C(=O)Nc1ccccc1	> 100 µM (inactive)	> 100 µM (inactive)	> 100 µM (inactive)	> 100 µM (inactive)	> 100 µM (inactive)	> 100 µM (inactive)	> 100 µM (inactive)	> 100 µM (inactive)	> 100 µM (inactive)	> 100 µM (inactive)	> 100 µM (inactive)	> 100 µM (inactive)	> 100 µM (inactive)	> 100 µM (inactive)	> 100 µM (inactive)	> 100 µM (inactive)	> 100 µM (inactive)	> 100 µM (inactive)	> 100 µM (inactive)	> 100 µM (inactive)
CC1=NN(C(=O)CC(=O)N(C(=O)c2ccccc2)c2ccc(Cl)cc2)C(=O)C1/N=N/c1ccc([N+](=O)[O-])cc1 (stereo not given)	> 10 µM (inactive)	> 10 µM (inactive)	> 10 µM (inactive)	> 10 µM (inactive)	> 10 µM (inactive)	> 10 µM (inactive)	> 10 µM (inactive)	> 10 µM (inactive)	> 10 µM (inactive)	> 10 µM (inactive)	> 10 µM (inactive)	> 10 µM (inactive)	> 10 µM (inactive)	> 10 µM (inactive)	> 10 µM (inactive)	> 10 µM (inactive)	> 10 µM (inactive)	6.49 µM (inactive)	> 10 µM (inactive)	> 10 µM (inactive)
COCc1nc(N)nc(N2N=C(C)CC2(C)C)n1	> 100 µM (inactive)	> 100 µM (inactive)	> 100 µM (inactive)	> 100 µM (inactive)	> 100 µM (inactive)	> 100 µM (inactive)	> 100 µM (inactive)	> 100 µM (inactive)	> 100 µM (inactive)	> 100 µM (inactive)	> 100 µM (inactive)	> 100 µM (inactive)	> 100 µM (inactive)	> 100 µM (inactive)	> 100 µM (inactive)	> 100 µM (inactive)	> 100 µM (inactive)	> 100 µM (inactive)	> 100 µM (inactive)	> 100 µM (inactive)
O=C1CC(=O)NC(NN2C(=O)CSC2C(=O)c2ccco2)=N1 (stereo not given)	> 100 µM (inactive)	> 100 µM (inactive)	> 100 µM (inactive)	> 100 µM (inactive)	> 100 µM (inactive)	> 100 µM (inactive)	> 100 µM (inactive)	> 100 µM (inactive)	> 100 µM (inactive)	> 100 µM (inactive)	> 100 µM (inactive)	> 100 µM (inactive)	> 100 µM (inactive)	> 100 µM (inactive)	12.2 µM (inactive)	> 100 µM (inactive)	> 100 µM (inactive)	> 100 µM (inactive)	> 100 µM (inactive)	> 100 µM (inactive)
O=c1cc(/N=N\c2ccc(Br)cc2)[nH]c(=S)[nH]1	17.8 µM (inactive)	18.1 µM (inactive)	61.1 µM (inactive)	14.6 µM (inactive)	18.4 µM (inactive)	55.8 µM (inactive)	70.1 µM (inactive)	27 µM (inactive)	32.7 µM (inactive)	10.4 µM (inactive)	32.7 µM (inactive)	> 100 µM (inactive)	4.7 µM (inactive)	18.2 µM (inactive)	> 100 µM (inactive)	> 100 µM (inactive)	15.8 µM (inactive)	24.5 µM (inactive)	> 100 µM (inactive)	19.7 µM (inactive)
COC1(OC)C2(Cl)CCC1(Cl)C(OC(C)=O)C2 (stereo not given)	> 100 µM (inactive)	> 100 µM (inactive)	> 100 µM (inactive)	> 100 µM (inactive)	> 100 µM (inactive)	> 100 µM (inactive)	> 100 µM (inactive)	> 100 µM (inactive)	> 100 µM (inactive)	> 100 µM (inactive)	> 100 µM (inactive)	> 100 µM (inactive)	> 100 µM (inactive)	> 100 µM (inactive)	> 100 µM (inactive)	> 100 µM (inactive)	> 100 µM (inactive)	> 100 µM (inactive)	> 100 µM (inactive)	> 100 µM (inactive)
CCSC(=O)/C=C1\CN(C(=O)OC(C)(C)C)C1C(=O)OC(C)(C)C (stereo not given)	5.38 µM (inactive)	2.38 µM (inactive)	4.95 µM (inactive)	1.27 µM (inactive)	4.23 µM (inactive)	5.41 µM (inactive)	3.03 µM (inactive)	4.21 µM (inactive)	2.6 µM (inactive)	6.56 µM (inactive)	7.14 µM (inactive)	12.7 µM (inactive)	1.87 µM (inactive)	1.55 µM (inactive)	2.59 µM (inactive)	12.1 µM (inactive)	2.38 µM (inactive)	1.71 µM (inactive)	13.8 µM (inactive)	2.74 µM (inactive)
Cc1cc(O)cc(O)c1C(=O)O[C@]1(C)C(=O)C=C2C=C(/C=C/C(=O)O)OC=C2C1=O	> 100 µM (inactive)	> 100 µM (inactive)	> 100 µM (inactive)	38.5 µM (inactive)	94.4 µM (inactive)	> 100 µM (inactive)	> 100 µM (inactive)	> 100 µM (inactive)	> 100 µM (inactive)	> 100 µM (inactive)	> 100 µM (inactive)	> 100 µM (inactive)	> 100 µM (inactive)	76.9 µM (inactive)	0.76 µM (active)	> 100 µM (inactive)	47.8 µM (inactive)	60.8 µM (inactive)	> 100 µM (inactive)	> 100 µM (inactive)
CC(=C(C(=O)O)C(=O)O)c1cc(-c2cccs2)cc(-c2ccc(Cl)cc2)c1O	18.5 µM (inactive)	26.7 µM (inactive)	14.4 µM (inactive)	18.7 µM (inactive)	17.3 µM (inactive)	11.9 µM (inactive)	14.6 µM (inactive)	16.7 µM (inactive)	17.3 µM (inactive)	17.4 µM (inactive)	17.1 µM (inactive)	21.2 µM (inactive)	15.2 µM (inactive)	13.8 µM (inactive)	18 µM (inactive)	20.7 µM (inactive)	5.47 µM (inactive)	6.41 µM (inactive)	33.7 µM (inactive)	15.6 µM (inactive)
NC(=O)Cc1nc2c(O)ncnc2n1C1OC(CO)C(O)C1O (stereo not given)	> 100 µM (inactive)	> 100 µM (inactive)	> 100 µM (inactive)	> 100 µM (inactive)	> 100 µM (inactive)	> 100 µM (inactive)	> 100 µM (inactive)	> 100 µM (inactive)	> 100 µM (inactive)	> 100 µM (inactive)	> 100 µM (inactive)	> 100 µM (inactive)	> 100 µM (inactive)	> 100 µM (inactive)	> 100 µM (inactive)	> 100 µM (inactive)	> 100 µM (inactive)	> 100 µM (inactive)	> 100 µM (inactive)	> 100 µM (inactive)
